The assay has as its system human T cells. Briefly: Treatment of human T cells with K884: central memory differentiation and cytokine production. It is filed as cell-based. The protocol:
Calculate the specific cell lysis as follows: Specific cell lysis=((Sample−BF)/(AF−BF))×100 10) Flow Cytometry 1. Cell Activation • a. Wash cells with 1 ml of culture medium; • b. Centrifuge cells for 5 min at 300 g; • c. Resuspend cells in culture medium; • d. Prepare 2× solutions (negative control with only culture medium, Positive condition with 50 ng/mL of PMA and 500 ng/mL of lonomycin); • e. Plate 100 μL of cell suspension in 96 well plates (U-bottom); • f. Add 100 μL of 2× solutions in appropriate wells; • g. Incubate 4 hours at 37 C, 5% CO2. 2. Extracellular Staining • a. Record cell quantity transfers per tube; • b. Wash cells with 1 mL of PBS+2% FBS; • c. Centrifuge cells for 5 min at 300 g; • d. Empty tubes by inversion; • e. Add the antibodies for extracellular staining; • f. Incubate 20 min at 4° C.; • g. Wash cells with 1 mL of PBS+2% FBS; • h. Centrifuge cells for 5 min at 300 g; • i. Empty tubes by inversion; • j. Ressuspend cells in 100 μL fixation/permeabilisation buffer (eBioscience, #00-5223-56, 1 volume of concentrate buffer+3 volumes of diluent buffer) • k. Incubate 30 min at room temperature or overnight at 4° C. 3. Intracellular Staining • a. Wash cells with 1 mL of permeabilization buffer (eBioscience, #00-8333-56, dilution 1/10 in ddH2O); • b. Centrifuge cells for 5 min at 300 g; • c. Empty tubes by inversion; • d. Add the intracellular antibodies; • e. Incubate 1 hour at 4° C.; • f. Wash cells with 1 mL of permeabilization buffer; • g. Centrifuge cells for 5 min at 300 g; • h. Empty tubes by inversion; • i. Keep tubes at 4° C. shelter from light 4. Human PBMC Isolation by Ficoll • a. Prepare 50 ml tubes; • b. Transfer blood into 50 ml tubes, with maximum of 17.5 ml per tube; • c. Add sterile PBS to dilute blood to reach 35 ml; • d. Use a dropped-in Pasteur pipet used as a tunnel; add 15 ml of Ficoll; • e. Gently install the tubes and centrifuge at 1000 g for 20 min, RT without brakes; • f. Using a 25 ml pipet, harvest the interface ring of PBMC without too much Ficoll and transfer into a 50 ml tube (maximum 15 ml per tube); • g. […]

Where [1] appears, read: 14 days with IL-7 and IL-15, restimulated with PMA and Ionomycin 4 hours.

The text below walks through data of patent US11597739B2, “Enhancing CD8+ T cells for adoptive T cell therapy by inhibiting PTPN1 (PTP1B) and PTPN2 (TC-PTP)” (The Royal Institution for the Advancement of …, priority 2017, dated 2023).

SMILES strings stand for the structures.

Turning to `CCOC(=O)c1cc2cc(C(F)(F)P(=O)(O)O)c(Br)cc2s1` [Ex. 1, ((6-BROMO-2-(ETHOXYCARBONYL)BENZO[B]THIOPHEN-5-YL)DIFLUOROMETHYL)PHOSPHONATE], under setting [1], the TNFα secretion entry is on record as “enhancement of the proinflammatory cytokine TNFα secretion” and the “production of IFNγ” value is “production of IFNγ is maintained”. Moreover, the “response of peripheral blood human CD8 T cells to treatment” value (human CD8 T cells compared to mouse CD8 T cells) is on record as “respond in equivalent manner to mouse CD8 T cells”.
